Test results from US20020160459A1, “PROCESS FOR PRODUCTION OF N-GLUCOSAMINE” (priority 1999, published 2002).
Read-outs that look alike come from different tables or passages of the source.

Legend:
[1] = target: T1, N-glucosamine-6-phosphate synthase (Escherichia coli, UniProt P17169); settings: substrate of the enzyme from Escherichia coli; cited from earlier work
[2] = target: T1, N-glucosamine-6-phosphate synthase; experiment: Product inhibition of N-glucosamine-6-phosphate synthase, spectrophotometric assay in crude cell extracts; format: biochemical; settings: FIG. 5; assays run with various concentrations of added product
Experimental: N-glucosamine-6-phosphate synthase activity was measured in production strains containing integrated T7-glmS cassettes after growth in LB medium with and without IPTG (Table 2). N-glucosamine-6-phosphate synthase was assayed in crude cell extracts using either […] or spectrophotometric assays (Badet et al., 1987, Biochemistry 26:1940-1948) as described below. The extracts used for those assays were prepared by suspending washed cell pellets in 5 mL of 0.1 M KH2PO4/K2HPO4, pH 7.5 per gram of wet cell paste, passing the suspension through a French press at 16,000 psi, and centrifuging the disrupted cell suspension at 35,000-40,000 ×g for 15 to 20 minutes. The supernatant was used as the source of enzyme for the assay.
In the spectrophotometric assay, 1 mL reactions containing 50 mM KH2PO4/K2HPO4, 10 mM fructose-6-phosphate, 6 mM L-glutamine, 10 mM KCl, 0.6 mM acetylpyridine adenine dinucleotide (APAD), and 50-60 Units of L-glutamic dehydrogenase (Sigma Type II from bovine liver) were run at room temperature. The activity was followed by monitoring the absorbance at 365 nm after the addition of extract and corrected for the small absorbance increase observed in the absence of extract. The activity was calculated using a molar extinction coefficient for APAD of 9100. […]

[3] = target: T1, N-glucosamine-6-phosphate synthase; settings: White 1968, Biochem. J. 106:847-858; cited from earlier work

T1 sequence (P17169 2-609): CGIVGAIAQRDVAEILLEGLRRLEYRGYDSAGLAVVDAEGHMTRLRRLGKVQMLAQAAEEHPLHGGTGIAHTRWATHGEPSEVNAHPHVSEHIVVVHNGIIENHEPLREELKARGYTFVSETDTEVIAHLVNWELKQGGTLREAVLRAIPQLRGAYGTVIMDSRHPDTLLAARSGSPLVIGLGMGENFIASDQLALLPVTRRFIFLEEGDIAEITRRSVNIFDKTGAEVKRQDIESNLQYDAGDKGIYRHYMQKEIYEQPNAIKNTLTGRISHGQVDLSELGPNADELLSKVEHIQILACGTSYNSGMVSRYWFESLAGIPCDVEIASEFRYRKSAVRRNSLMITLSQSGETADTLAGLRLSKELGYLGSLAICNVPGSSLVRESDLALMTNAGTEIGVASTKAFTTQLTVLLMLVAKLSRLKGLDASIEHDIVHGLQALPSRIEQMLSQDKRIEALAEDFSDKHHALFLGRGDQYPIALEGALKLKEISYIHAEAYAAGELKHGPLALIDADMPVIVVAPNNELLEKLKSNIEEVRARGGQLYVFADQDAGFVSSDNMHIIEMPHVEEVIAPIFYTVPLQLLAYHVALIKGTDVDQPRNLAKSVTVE

Structure (SMILES)	Km [1]	inhibition of N-glucosamine-6-phosphate synthase [2]	inhibition of N-glucosamine-6-phosphate synthase [3]
O=C(CO)[C@@H](O)[C@H](O)[C@H](O)COP(=O)(O)O [fructose-6-phosphate]	2000 µM	–	–
N[C@H]1C(O)O[C@H](CO)[C@@H](O)[C@@H]1O (some centres unmarked) [N-glucosamine]	–	slightly inhibited	–
NC(=O)CC[C@H](N)C(=O)O [glutamine]	400 µM	–	–
N[C@@H]1[C@@H](O)[C@H](O)[C@@H](COP(=O)(O)O)O[C@@H]1O [N-glucosamine-6-phosphate]	–	significantly inhibited	inhibited
